Experimental data: patent US20240026278A1, “BLOOD CELL LYSING AGENT FOR ISOLATING BACTERIA FROM BLOOD CULTURE” (Becton, Dickinson and Company, priority 2020, published 2024)

Test system: blood cells
Experiment: Lysis of blood cells by the lysing agent
Assay type: cell-based
Conditions: in lysing buffer
Text: Currently available methods employ saponin to lyse blood cells for isolating bacteria from positive blood cultures. […] It is probable that this identification failure is due to the blood cells not being completely lysed and/or a high content of blood debris. […] In some embodiments, SDA is very water soluble. An advantage of using SDA as the lysing agent for isolating bacteria from positive blood culture is that the MALDI score for challenging species such as Staphylococcus epidermidis can be higher than the cutoff value, leading to correct species identification. Moreover, processing times using SDA versus saponin can be nearly identical.
FIG. 1 depicts exemplary data related to MALDI scores for Staphylococcus epidermidis isolated from positive blood cultures using different lysing agents, namely saponin (SAP), Nonoxynol-9 (Somatic Cell Digestion Agent (SDA)), and a combination thereof. The concentration of each lysing agent was used at 0.52% (w/w). The score for acceptance of identification is greater than or equal to 1.8 for the Sepsityper database and 2.0 for the standard database. […] SDA is generally used as a spermicide by interacting with the lipids in the membranes of the acrosome and the midpiece of the sperm.

## Nonoxynol-9 [SDA]
  blood cell lysis: lyse blood cells very efficiently
